Laboratory results as given in patent US7285619B2, “Echinocandin derivatives, their method of preparation and their application as anti-fungal agents” (Aventis Pharma S.A., priority 1997, dated 2007).

Tested on: glucane Synthesis of Candida albicans
Assay: Inhibition of the glucane synthesis of Candida albicans (membrane preparation, 14C-UDP glucose incorporation)
Format: biochemical
Conditions: purified Candida albicans membranes, 25° C., 1 hour, result in words
Protocol: Tablets have been prepared containing: • The product of example 14 . . . 150 mg • Excipient q.s.p. . . . 1 g (Detail of the excipient: starch, talc, magnesium stearate). Pharmacological Study A—Inhibition of the glucane Synthesis of Candida albicans.
The membranes of Candida albicans are purified according to the process described by Tang and al Antimicrob. Agents Chemother 35, 99-103, 1991. 22.5 μg of membrane proteins are incubated in a mixture of 2 Mm of 14C-UDP glucose (specific activity=0.34 mCi./mmol, 50 μg of α-amylase, 1 Mm of dithiotreitol (DTT), 1 Mm EDTA, 100 Mm NaF, 7 μM of GTP-γ-S, 1M of sucrose and 5 oMm OF Ttris-HCL (pH 7.8) in a volume of 100 μl. The medium is incubated at 25° C. for 1 hour and the reaction terminated by addition of TCA to a final concentration of 5%. The reaction medium is transferred onto a pre-humidified glass fibre filter. The filter is washed, dried and its radioactivity is counted.
Mulundocandin is used as positive control.
The control of the medium is carried out with the same quantity of DMSO 1%.

Molecule | activity in the test of inhibition of the glucane synthesis of Candida albicans
Trifluoroacetate of 1-[4-[(2-aminoethyl)amino]-N2-(12-methyl-1-oxotetradecyl)-L-ornithine]4-[4-(4-hydroxyphenyl)-L-threonine]-5-L Serine Echinocandin B (Isomer A and Isomer B) [Example 9] | good activity
CCCCCCCCOc1ccc(-c2ccc(C(=O)NC3CC(NCCN)CNC(=O)C4C(O)C(C)CN4C(=O)C(CO)NC(=O)C(C(O)Cc4ccc(O)cc4)NC(=O)C4CC(O)CN4C(=O)C(C(C)O)NC3=O)cc2)cc1.O=C(O)C(F)(F)F (single isomer, unassigned; isomer a) [Example 14, Trifluoroacetate of 1-[4-[(2-aminoethyl)amino]N2-[[4′-(octyloxy)[1.1′-biphenyl]-4-yl]carbonyl]-L-ornithine]4-[4-(4-hydroxyphenyl)-L-threonine]-5-L Serine Echinocandin B (Isomer A)] | good activity
(±) Trifluoroacetate of 1-[4-[(aminoiminomethyl) Hydrazono]-N2-(12-methyl-1-oxotetradecyl)-L-ornithine]4-[4-(4-hydroxyphenyl)-L-threonine]-5-L Serine Echinocandin B [Example 11] | good activity
